Data reported in patent publication US6969730B2, “Amines as histamine-3 receptor ligands and their therapeutic applications” (Abbott Laboratories, priority 2001, dated 2005).

biological target: T1, histamine-3 receptors (H3 receptor) (Rattus norvegicus, UniProt Q9QYN8); assay: (3H)-N-α-methylhistamine binding to rat cortical membranes (histamine-3 receptor ligands); settings: male Sprague-Dawley rat brain cortical membranes; (3H)-N-α-methylhistamine ~0.6 nM; 30 minutes at 25° C.; Cheng-Prusoff
T1 construct: from tissue; host or cells: male Sprague-Dawley rat brain cortex membranes
T1 sequence (Q9QYN8 whole entry): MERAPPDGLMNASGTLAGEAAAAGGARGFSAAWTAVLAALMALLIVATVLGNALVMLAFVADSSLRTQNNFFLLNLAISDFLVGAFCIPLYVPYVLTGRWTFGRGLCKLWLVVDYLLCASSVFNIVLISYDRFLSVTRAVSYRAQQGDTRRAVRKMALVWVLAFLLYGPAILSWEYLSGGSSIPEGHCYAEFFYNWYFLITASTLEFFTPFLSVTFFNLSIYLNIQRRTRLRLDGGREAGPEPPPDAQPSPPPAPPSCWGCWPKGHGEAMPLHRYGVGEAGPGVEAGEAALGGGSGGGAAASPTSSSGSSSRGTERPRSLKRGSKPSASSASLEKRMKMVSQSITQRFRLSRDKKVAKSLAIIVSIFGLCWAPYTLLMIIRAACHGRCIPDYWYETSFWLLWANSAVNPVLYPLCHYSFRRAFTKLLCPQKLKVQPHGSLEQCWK
Method: Briefly, male Sprague-Dawley rat brain cortices were homogenized (1 g tissue/10 mL buffer) in 50 mM Tris-HCl/5 mM EDTA containing protease inhibitor cocktail (Calbiochem) using a polytron set at 20,500 rpm. Homogenates were centrifuged for 20 minutes at 40,000×g. The supernatant was decanted, and pellets were weighed. The pellet was resuspended by polytron homogenization in 40 mL 50 mM Tris-HCl/5 mM EDTA with protease inhibitors and centrifuged for 20 minutes at 40,000×g. […] Rat cortical membranes (12 mg wet weight/tube) were incubated with (^3H)-N-α-methylhistamine (˜0.6 nM) with or without H3 receptor antagonists in a total incubation volume of 0.5 mL of 50 mM Tris-HCl/5 mM EDTA (pH 7.7). Test compounds were dissolved in DSMO to provide a 20 mM solution, serially diluted and then added to the incubation mixture prior to initiating the incubation assay by addition of the membranes. Thioperamide (3 μM) was used to determine nonspecific binding. Binding incubations were conducted for 30 minutes at 25° C. and terminated by addition of 2 mL of ice cold 50 mM Tris-HCl (pH 7.7) and filtration through 0.3% polyethylenimine-soaked Unifilter plates (Packard). These filters were washed 4 additional times with 2 mL of ice-cold 50 mM Tris-HCl and dried for 1 hour. Radioactivity was determined using liquid scintillation counting techniques. Results were analyzed by Hill transformation and Ki values were determined using the Cheng-Prusoff equation.

Row | Ki | SMILES
1 | 16 nM | C[C@@H]1CCCN1CCc1cc2cc(-c3ccccc3Cl)ccc2o1 [Example 123, (2R)-1-{2-[5-(2-chlorophenyl)-1-benzofuran-2-yl]ethyl}-2-methylpyrrolidine]
2 | 34 nM | C[C@@H]1CCCN1CCc1cc2cc(-c3cccc(Cl)c3)ccc2o1 [Example 124, (2R)-1-{2-[5-(3-chlorophenyl)-1-benzofuran-2-yl]ethyl}-2-methylpyrrolidine]
3 | 63 nM | CC1CCCN1CCc1cc2cc(-c3ccc(Cl)cc3)ccc2o1 (stereo not drawn) [Example 125, 1-{2-[5-(4-chlorophenyl)-benzofuran-2-yl]-ethyl}-2-methylpyrrolidine]
4 | 81 nM | C[C@@H]1CCCN1CCc1cc2cc(-c3cccc(C(F)(F)F)c3)ccc2o1 [Example 126, (2R)-2-methyl-1-(2-{5-[3-(trifluoromethyl)phenyl]-1-benzofuran-2-yl}ethyl)pyrrolidine]
5 | 120 nM | C[C@@H]1CCCN1CCc1cc2cc(-c3ccc(C(F)(F)F)cc3)ccc2o1 [Example 127, (2R)-2-methyl-1-(2-{5-[4-(trifluoromethyl)phenyl]-1-benzofuran-2-yl}ethyl)pyrrolidine]
6 | 110 nM | C[C@@H]1CCCN1CCc1cc2cc(-c3cccc(OC(F)(F)F)c3)ccc2o1 [Example 128, (2R)-2-methyl-1-(2-{5-[3-(trifluoromethoxy)phenyl]-1-benzofuran-2-yl}ethyl)pyrrolidine]
7 | 150 nM | C[C@@H]1CCCN1CCc1cc2cc(-c3ccc(OC(F)(F)F)cc3)ccc2o1 [Example 129, (2R)-2-methyl-1-(2-{5-[4-(trifluoromethoxy)phenyl]-1-benzofuran-2-yl}ethyl)pyrrolidine]
8 | 60 nM | Cc1ccc(-c2ccc3oc(CCN4CCC[C@H]4C)cc3c2)cc1C [Example 130, (2R)-1-{2-[5-(3,4-dimethylphenyl)-1-benzofuran-2-yl]ethyl}-2-methylpyrrolidine]
9 | 22 nM | C[C@@H]1CCCN1CCc1cc2cc(-c3cc(Cl)cc(Cl)c3)ccc2o1 [Example 131, (2R)-1-{2-[5-(3,5-dichlorophenyl)-1-benzofuran-2-yl]ethyl}-2-methylpyrrolidine]
10 | 19 nM | Cc1cc(C)cc(-c2ccc3oc(CCN4CCC[C@H]4C)cc3c2)c1 [Example 132, (2R)-1-{2-[5-(3,5-dimethylphenyl)-1-benzofuran-2-yl]ethyl}-2-methylpyrrolidine]
11 | 6.4 nM | C[C@@H]1CCCN1CCc1cc2cc(-c3ccc(CO)cc3)ccc2o1 [Example 133, [4-(2-{2-[(2R)-2-methyl-1-pyrrolidinyl]ethyl}-1-benzofuran-5-yl)phenyl]methanol]
12 | 3.2 nM | C[C@@H]1CCCN1CCc1cc2cc(-c3cccnc3)ccc2o1 [Example 134, 3-(2-{2-[(2R)-2-methyl-1-pyrrolidinyl]ethyl}-1-benzofuran-5-yl)pyridine]
13 | 31 nM | C[C@@H]1CCCN1CCc1cc2cc(C=Cc3ccc(F)cc3)ccc2o1 [Example 135, (2R)-1-(2-{5-[2-(4-fluorophenyl)vinyl]-1-benzofuran-2-yl}ethyl)-2-methylpyrrolidine]
14 | 0.4 nM | CC(=O)c1cccc(-c2ccc3oc(CCN4CCC[C@H]4C)cc3c2)c1 [Example 136, 1-[3-(2-{2-[(2R)-2-methyl-1-pyrrolidinyl]ethyl}-1-benzofuran-5-yl)phenyl]ethanone]
15 | 2.8 nM | CC(O)c1cccc(-c2ccc3oc(CCN4CCC[C@H]4C)cc3c2)c1 (stereo partly drawn) [Example 137, 1-[3-(2-{2-[(2R)-2-methyl-1-pyrrolidinyl]ethyl}-1-benzofuran-5-yl)phenyl]ethanol]
16 | 1.2 nM | C[C@@H]1CCCN1CCc1cc2cc(-c3cccc(C(C)(C)O)c3)ccc2o1 [Example 138, 2-[3-(2-{2-[(2R)-2-methyl-1-pyrrolidinyl]ethyl}-1-benzofuran-5-yl)phenyl]-2-propanol]
17 | 3.1 nM | CC(=NO)c1cccc(-c2ccc3oc(CCN4CCC[C@H]4C)cc3c2)c1 [Example 139, 1-[3-(2-{2-[(2R)-2-methyl-1-pyrrolidinyl]ethyl}-1-benzofuran-5-yl)phenyl]ethanone oxime]
18 | 21 nM | CON=C(C)c1cccc(-c2ccc3oc(CCN4CCC[C@H]4C)cc3c2)c1 [Example 140, 1-[3-(2-{2-[(2R)-2-methyl-1-pyrrolidinyl]ethyl}-1-benzofuran-5-yl)phenyl]ethanone O-methyloxime]
19 | 44 nM | CCON=C(C)c1cccc(-c2ccc3oc(CCN4CCC[C@H]4C)cc3c2)c1 [Example 141, 1-[3-(2-{2-[(2R)-2-methyl-1-pyrrolidinyl]ethyl}-1-benzofuran-5-yl)phenyl]ethanone O-ethyloxime]
20 | 29 nM | CC(=NOC(C)(C)C)c1cccc(-c2ccc3oc(CCN4CCC[C@H]4C)cc3c2)c1 [Example 142, 1-[3-(2-{2-[(2R)-2-methyl-1-pyrrolidinyl]ethyl}-1-benzofuran-5-yl)phenyl]ethanone O-(tert-butyl)oxime]
21 | 19 nM | CC(C)CC(=O)c1cccc(-c2ccc3oc(CCN4CCC[C@H]4C)cc3c2)c1 [Example 148, 3-methyl-1-[3-(2-{2-[(2R)-2-methyl-1-pyrrolidinyl]ethyl}-1-benzofuran-5-yl)phenyl]-1-butanone]
22 | 3.3 nM | C[C@@H]1CCCN1CCc1cc2cc(-c3cccc(C=O)c3)ccc2o1 [Example 149, 3-(2-{2-[(2R)-2-methyl-1-pyrrolidinyl]ethyl}-1-benzofuran-5-yl)benzaldehyde]
23 | 3.6 nM | C[C@@H]1CCCN1CCc1cc2cc(-c3cccc(C(=O)c4cccs4)c3)ccc2o1 [Example 150, [3-(2-{2-[(2R)-2-methyl-1-pyrrolidinyl]ethyl}-1-benzofuran-5-yl)phenyl](2-thienyl)methanone]
24 | 53 nM | C[C@@H]1CCCN1CCc1cc2cc(-c3cccc(C(=O)c4cccc(F)c4)c3)ccc2o1 [Example 151, (3-fluorophenyl)[3-(2-{2-[(2R)-2-methyl-1-pyrrolidinyl]ethyl}-1-benzofuran-5-yl)phenyl]methanone]
25 | 2.6 nM | C[C@@H]1CCCN1CCc1cc2cc(-c3cccc(CO)c3)ccc2o1 [Example 152, [3-(2-{2-[(2R)-2-methyl-1-pyrrolidinyl]ethyl}-1-benzofuran-5-yl)phenyl]methanol]
26 | 32 nM | C[C@@H]1CCCN1CCc1cc2cc(Cc3ccccc3)ccc2o1 [Example 153, (2R)-1-[2-(5-benzyl-1-benzofuran-2-yl)ethyl]-2-methylpyrrolidine]
27 | 2 nM | C[C@@H]1CCCN1CCc1cc2cc(-n3ccnc3)ccc2o1 [Example 154, 1-(2-{2-[(2R)-2-methyl-1-pyrrolidinyl]ethyl}-1-benzofuran-5-yl)-1H-imidazole]
28 | 16 nM | Cc1cc(-c2ccc3oc(CCN4CCC[C@H]4C)c(Br)c3c2)ccc1C#N [Example 155, 4-(3-bromo-2-{2-[(2R)-2-methyl-1-pyrrolidinyl]ethyl}-1-benzofuran-5-yl)-2-methylbenzonitrile]
29 | 3.7 nM | C[C@@H]1CCCN1CCc1oc2ccc(-c3ccc(C#N)cc3)cc2c1Cl [Example 156A, 4-(3-chloro-2-{2-[(2R)-2-methyl-1-pyrrolidinyl]ethyl}-1-benzofuran-5-yl)benzonitrile]
30 | 9.7 nM | C[C@@H]1CCCN1CCc1oc2cc(Cl)c(-c3ccc(C#N)cc3)cc2c1Cl [Example 156B, 4-(3,6-dichloro-2-{2-[(2R)-2-methyl-1-pyrrolidinyl]ethyl}-1-benzofuran-5-yl)benzonitrile]
